What all share (format): cell-based
The target of experiment [1] is T1, AR protein (Homo sapiens, UniProt P10275).
T1 construct: degradation activity of the compounds disclosed in the present disclosure on AR protein in VCaP cells; host or cells: VCaP
T1 sequence (P10275 1-920): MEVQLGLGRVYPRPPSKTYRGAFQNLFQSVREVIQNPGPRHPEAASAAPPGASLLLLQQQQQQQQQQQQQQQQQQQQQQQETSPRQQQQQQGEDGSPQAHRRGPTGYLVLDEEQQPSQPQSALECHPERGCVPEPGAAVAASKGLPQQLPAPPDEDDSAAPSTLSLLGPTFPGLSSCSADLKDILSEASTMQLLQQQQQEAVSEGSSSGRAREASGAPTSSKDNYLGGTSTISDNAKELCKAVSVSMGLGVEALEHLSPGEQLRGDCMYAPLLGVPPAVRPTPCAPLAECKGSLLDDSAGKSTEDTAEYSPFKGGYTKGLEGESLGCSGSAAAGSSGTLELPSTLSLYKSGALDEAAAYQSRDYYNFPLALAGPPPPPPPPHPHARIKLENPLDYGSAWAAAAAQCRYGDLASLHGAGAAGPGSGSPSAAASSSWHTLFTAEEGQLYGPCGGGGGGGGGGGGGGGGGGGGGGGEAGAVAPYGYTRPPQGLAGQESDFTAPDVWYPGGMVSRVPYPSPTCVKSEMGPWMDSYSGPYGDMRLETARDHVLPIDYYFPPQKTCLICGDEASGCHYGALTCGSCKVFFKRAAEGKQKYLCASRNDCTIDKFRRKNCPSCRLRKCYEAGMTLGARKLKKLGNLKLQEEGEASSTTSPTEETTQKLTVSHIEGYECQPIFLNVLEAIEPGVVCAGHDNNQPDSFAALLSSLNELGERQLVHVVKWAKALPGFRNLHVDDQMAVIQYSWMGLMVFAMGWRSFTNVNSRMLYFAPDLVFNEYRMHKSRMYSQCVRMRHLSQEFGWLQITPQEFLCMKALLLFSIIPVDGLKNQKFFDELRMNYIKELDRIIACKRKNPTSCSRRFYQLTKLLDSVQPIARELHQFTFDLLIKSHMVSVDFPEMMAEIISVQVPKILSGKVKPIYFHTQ
Put plainly: Degradation of AR protein in VCaP cells (Western blot). As to conditions: 8 hours; for inhibition at 0.01 µM: compound at 10 nM, read-out: Degradation rate of the AR protein in VCaP cells, 10 nM (%); for inhibition at 0.1 µM: compound at 100 nM, read-out: Degradation rate of the AR protein in VCaP cells, 100 nM (%). In outline:
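VCaP cells treated with compound alongside solvent controls for 8 h, then lysed in RIPA and protein quantified by BCA. AR detected by SDS-PAGE/Western blot with infrared imaging. Degradation rate calculated from band grayscale, with GAPDH as internal reference.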
On the technique in general: Immunoblotting shows a protein as a band on a membrane.

Experiment [2] addresses T2, AR protein (Homo sapiens, UniProt P10275, T878A).
T2 construct: degradation activity of the compounds disclosed in the present disclosure on AR protein in LNCaP cells; host or cells: LNCaP FGC
T2 sequence (P10275 1-920 T878A): T1 sequence (P10275 1-920) with T878A
Put plainly: Degradation of AR protein in LNCaP cells (Western blot). Particulars: for inhibition at 0.01 µM: read-out: Degradation rates of the AR protein in LNCaP cells, 10 nM (%); for inhibition at 0.1 µM: read-out: Degradation rates of the AR protein in LNCaP cells, 100 nM (%). In outline:
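AR assessed by SDS-PAGE/Western blot with infrared imaging; band greyscale normalised to GAPDH gave percent degradation.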

The subject of experiment [3] is VCaP cells. Put plainly: Inhibition of proliferation of VCaP cells (WST-8). As to conditions: Homo sapiens, read-out: IC50 for inhibiting the proliferation of VCaP cells. The method, then: The inhibitory activity of the compounds disclosed in the present disclosure on the proliferation of VCaP cells
On the first day of the experiment, […] were inoculated in 96 well plates at a density of 15000 cells per well using DMEM medium containing 10% fetal bovine serum, with 100 μL of cell suspension per well. The cells were cultured in a cell culture incubator with 5% CO2 at 37° C. overnight. […] On the ninth day, 96 well plates were taken out, and 20 μL of WST-8 (Beytime, C0040) reagent was added to each well.
On the technique in general: Tetrazolium assays rely on reduction of a dye to a coloured formazan, in cell work by metabolically active cells.

Experiment [4] relates to LNCaP FGC cells. Put plainly: Inhibition of proliferation of LNCaP cells (WST-8). As to conditions: Homo sapiens, LNCaP, 96 h. On the procedure: The cells were cultured in a cell culture incubator with 5% CO2 at 37° C. overnight. […] On the sixth day, 96 well plates were taken out, and 20 μL of WST-8 (Beytime, C0040) reagent was added to each well.
Setting [5] is: VCaP cells, 168 hours, WST-8 absorbance at 450 nm.
Where [6] appears, read: read-out: IC50 for inhibiting the proliferation of LNCaP cells, LNCaP FGC cells, 96 hours, WST-8 absorbance at 450 nm.
[7] abbreviates: LNCaP FGC cells, 96 hours, WST-8 absorbance at 450 nm, read-out: IC50 for inhibiting the proliferation of LNCaP cells.

Substitutions are numbered along the chain they refer to. pIC50: −log10 of the molar value. Like-named read-outs stand apart in the source and are kept apart here.

As for `COc1cc(O[C@H]2CC[C@H](NC(=O)c3cnc(N4CCC(CN5CC6(CCc7cc8c(cc7O6)C(=O)N(C6CCC(=O)NC6=O)C8=O)C5)(OC)CC4)nc3)CC2)ccc1C#N` (stereo partly drawn) [Compound 232], the inhibition at 0.01 µM was found to be 37% in experiment [1] and 33% in experiment [2] (LNCaP cells, compound 10 nM, 8 hours, Western blot grayscale, GAPDH internal reference). In addition, the inhibition at 0.1 µM in experiment [1] stood at 43%; in experiment [2] (LNCaP cells, compound 100 nM, 8 hours, Western blot grayscale, GAPDH internal reference), 36%. The pIC50 in experiment [3] (setting [5]) is 5.36.
As to `CC1(CN2CCC3(CC2)COc2cc4c(cc2C3)C(=O)N(C2CCC(=O)NC2=O)C4=O)CCN(C(=O)c2ccc(N3C(=S)N(c4ccc(C#N)c(C(F)(F)F)c4)C(=O)C3(C)C)cc2F)CC1` (stereo not drawn) [Compound 114], the pIC50 was 5.12 in experiment [4] (setting [6]) and 5.48 in experiment [3] (VCaP, 168 h).
For the molecule `CC1(C)C(=O)N(c2ccc(C#N)c(C(F)(F)F)c2)C(=S)N1c1ccc(C(=O)N2CCC3(CCC(N4CCC5(CC4)COc4cc6c(cc4C5)C(=O)N(C4CCC(=O)NC4=O)C6=O)CC3)C2)c(F)c1` (stereo not drawn) [Compound 130], the pIC50 in experiment [4] (setting [6]) is 5.58; in experiment [3] (VCaP, 168 h), 5.44.
Regarding `N#Cc1ccc(O[C@H]2CC[C@H](NC(=O)c3ccc(N4CC[C@@H](CN5CCC6(CCc7cc8c(cc7O6)C(=O)N(C6CCC(=O)NC6=O)C8=O)CC5)C4)nn3)CC2)cc1Cl` (stereo partly drawn) [Compound 21], the pIC50 in experiment [4] (setting [7]) is 6.25; in experiment [3] (setting [5]) it was 6.42.
Take `COC1(CN2CC3(CCc4cc5c(cc4O3)CN(C3CCC(=O)NC3=O)C5=O)C2)CCN(C(=O)c2ccc(N3C(=S)N(c4ccc(C#N)c(C(F)(F)F)c4)C(=O)C3(C)C)cc2F)CC1` (stereo not drawn) [Compound 89]: the pIC50 in experiment [4] (setting [6]) was 5.49; in experiment [3] (VCaP, 168 h) it was 6.46.
On to `CC1(C)C(=O)N(c2ccc(C#N)c(C(F)(F)F)c2)C(=S)N1c1ccc(C(=O)N2CCC(CN3CCC4(CCc5cc6c(cc5O4)CN(C4CCC(=O)NC4=O)C6=O)CC3)CC2)c(F)c1` (stereo not drawn) [Compound 85], for which the pIC50 is 5.27 in experiment [4] (setting [6]) and 5.13 in experiment [3] (VCaP, 168 h).
As to `N#Cc1ccc(O[C@H]2CC[C@H](NC(=O)c3ccc(N4CCC(F)(CN5CCC6(CCc7ccc8c(c7O6)C(=O)N(C6CCC(=O)NC6=O)C8)CC5)CC4)nn3)CC2)cc1Cl` (stereo partly drawn) [Compound 163], the pIC50 in experiment [4] (setting [7]) was 4.87; in experiment [3] (setting [5]) it was 6.19.
Consider `CC1(C)C(=O)N(c2ccc(C#N)c(C(F)(F)F)c2)C(=S)N1c1ccc(C(=O)N2CCC(F)(CN3CC4(CCc5cc6c(cc5O4)C(=O)N(C4CCC(=O)NC4=O)C6)C3)CC2)c(F)c1` (stereo not drawn) [Compound 81], for which the pIC50 in experiment [4] (setting [6]) is 5.41; in experiment [3] (VCaP, 168 h), 7.52.
For `CC1(C)C(=O)N(c2ccc(C#N)c(C(F)(F)F)c2)C(=S)N1c1ccc(C(=O)N2CCC3(CC2)CC(N2CCC4(CC2)COc2cc5c(cc2C4)C(=O)N(C2CCC(=O)NC2=O)C5=O)C3)c(F)c1` (stereo not drawn) [Compound 123] the same measures were 5.57 and 5.47.
For `CC1(CN2CC3(CCc4cc5c(cc4O3)CN(C3CCC(=O)NC3=O)C5=O)C2)CCN(c2ccc(C(=O)N[C@H]3CC[C@H](Oc4ccc(C#N)c(Cl)c4)CC3)nn2)CC1` (stereo partly drawn) [Compound 80], the pIC50 was 6.14 in experiment [4] (setting [7]) and 5.55 in experiment [3] (setting [5]).
Consider `CC1(C)C(=O)N(c2ccc(C#N)c(C(F)(F)F)c2)C(=S)N1c1ccc(C(=O)N2CC3(CC(N4CCC5(CCc6cc7c(cc6O5)C(=O)N(C5CCC(=O)NC5=O)C7=O)CC4)C3)C2)c(F)c1` (stereo not drawn) [Compound 100], for which the pIC50 was 4.55 in experiment [4] (setting [6]) and 6.21 in experiment [3] (VCaP, 168 h).
With `COC1(CN2CC3(CCc4cc5c(cc4O3)C(=O)N(C3CCC(=O)NC3=O)C5=O)C2)CCN(C(=O)c2ccc(N3C(=S)N(c4ccc(C#N)c(C(F)(F)F)c4)C(=O)C3(C)C)cc2F)CC1` (stereo not drawn) [Compound 88], the pIC50 was 6.28 in experiment [4] (setting [7]) and 6.77 in experiment [3] (setting [5]).
For `COC1(CN2CCC3(CCc4cc5c(cc4O3)C(=O)N(C3CCC(=O)NC3=O)C5)CC2)CCN(c2ccc(C(=O)N[C@H]3CC[C@H](Oc4ccc(C#N)c(Cl)c4)CC3)nn2)CC1` (stereo partly drawn) [Compound 131] the same measures were 5.34 and 5.64.
As to `CC1(C)C(=O)N(c2ccc(C#N)c(C(F)(F)F)c2)C(=S)N1c1ccc(C(=O)N2CC(N3CCC4(CC3)COc3cc5c(cc3C4)C(=O)N(C3CCC(=O)NC3=O)C5=O)C2)c(F)c1` (stereo not drawn) [Compound 112], the pIC50 in experiment [4] (setting [6]) is 5.09; in experiment [3] (VCaP, 168 h) it was 5.29.
As for `CC1(C)C(=O)N(c2ccc(C#N)c(C(F)(F)F)c2)C(=S)N1c1ccc(C(=O)N2CCC(CN3CC4(CCc5cc6c(cc5O4)CN(C4CCC(=O)NC4=O)C6=O)C3)CC2)c(F)c1` (stereo not drawn) [Compound 124], the figures for the pIC50 in experiment [4] (setting [7]) and in experiment [3] (setting [5]) were 5.10 and 5.53, respectively.
Consider `CC1(C)C(=O)N(c2ccc(C#N)c(C(F)(F)F)c2)C(=S)N1c1ccc(C(=O)N2CC3(CCC(N4CCC5(CC4)COc4cc6c(cc4C5)C(=O)N(C4CCC(=O)NC4=O)C6=O)CC3)C2)c(F)c1` (stereo not drawn) [Compound 86], for which the pIC50 in experiment [4] (setting [6]) was 5.34; in experiment [3] (VCaP, 168 h), 5.60.
For the molecule `COC1(CN2CCC3(CC2)Cc2cc4c(cc2O3)C(=O)N(C2CCC(=O)NC2=O)C4=O)CCN(c2ccc(C(=O)N[C@H]3CC[C@H](Oc4ccc(C#N)c(Cl)c4)CC3)nn2)CC1` (stereo partly drawn) [Compound 199], the values for the pIC50 in experiment [4] (setting [7]) and in experiment [3] (setting [5]) were 5.95 and 6.24, respectively.
Regarding `N#Cc1ccc(O[C@H]2CC[C@H](NC(=O)c3ccc(N4CC(N5CCC6(CCc7cc8c(cc7O6)C(=O)N(C6CCC(=O)NC6=O)C8)CC5)C4)nn3)CC2)cc1Cl` (stereo partly drawn) [Compound 46], in experiment [1], the inhibition at 0.01 µM amounted to 39% and the inhibition at 0.1 µM turned out to be 59%. Moreover, in experiment [2] (LNCaP, 8 h), the inhibition at 0.01 µM amounted to 35% and the inhibition at 0.1 µM was determined as 47%. Further, the pIC50 in experiment [3] (VCaP, 168 h) was 6.96.

The record behind these values is patent US20260234157A1, “COMPOUND AND METHOD FOR TARGETED DEGRADATION OF ANDROGEN RECEPTOR” (Gan & Lee Pharmaceuticals Co., Ltd., priority 2023, published 2026).
